Test results reported in EP1129187B1, “NEW FAMILY OF MAMMALIAN POTASSIUM CHANNELS, THEIR CLONING AND THEIR USE, ESPECIALLY FOR THE SCREENING OF DRUGS” (CENTRE NATIONAL DE LA RECHERCHE SCIENTIFIQUE (CNRS), priority 1998, dated 2000).
Like-named read-outs stand apart in the source and are kept apart here.

Key:
[1] = biological target: T1, human TASK-2 K+ channel, SEQ ID NO: 28 (Homo sapiens, UniProt O95279); experiment: TASK-2 currents elicited by voltage pulses to +50 mV, whole cell recording in transfected COS cells; assay type: cell-based
T1 construct: expressed in transfected cells; host or cells: COS cells transiently transfected with pIREScd8-TASK-2 (DEAE-dextran)
T1 sequence (O95279 1-499): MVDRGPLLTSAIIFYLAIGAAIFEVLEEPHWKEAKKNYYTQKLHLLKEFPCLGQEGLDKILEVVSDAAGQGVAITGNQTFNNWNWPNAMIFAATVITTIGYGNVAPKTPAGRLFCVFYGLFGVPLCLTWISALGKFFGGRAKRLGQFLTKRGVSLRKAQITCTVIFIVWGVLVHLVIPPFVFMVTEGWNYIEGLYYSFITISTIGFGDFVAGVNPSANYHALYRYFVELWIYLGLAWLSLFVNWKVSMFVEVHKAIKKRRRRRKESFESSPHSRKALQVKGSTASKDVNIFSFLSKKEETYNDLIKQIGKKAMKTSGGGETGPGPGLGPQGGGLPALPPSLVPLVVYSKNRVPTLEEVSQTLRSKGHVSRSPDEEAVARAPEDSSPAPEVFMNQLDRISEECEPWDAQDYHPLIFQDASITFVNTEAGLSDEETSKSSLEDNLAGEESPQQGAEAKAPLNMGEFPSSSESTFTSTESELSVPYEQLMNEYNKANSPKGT
Protocol: For patch clamp analyses, a NotI/EcoRI fragment of 3.2 kb was excised from pBS-TASK 2 and subcloned into the pIRES-CD8 vectorto givepIREScdB-TASK-2. ThepIRES-CD8 vector was obtained by replacing the neo^R gene in the original vector pIRESneo (Clontech) by the coding sequence of the T type lymphocyte's surface marker CD8. COS cells were seeded at a density of 20,000 cells per 35 mm dishes 24 h prior to transfection. Cells were then transiently transfected by the classical DEAE-dextian method with 1 µg of prREScdB-TASK-2 plasmid per 35 mm dish. Transiently-transfected cells were visualized 48 h after transfection using the anti-CD8 antibody coated beads method (24). For whole cell recordings, the internal solution contained 150 mM KCI, 3 mM MgCl2, 5 mM EGTA, and 10 mM HEPES at pH 7.2 with KOH, and he external solution 150 mM NaCl, 5 mM KCI, 3 mM MgCl2 1 mM CaCl2, 10 mM HEPES at pH 7.4 with NaOH.
The effects of various pharmacological agents on currents elicited by voltage pulses to +50 mV have been studied in TASK-2-exprcssing. COS cells.

[2] = biological target: T2, human TWIK-1 K+ channel, SEQ ID NO: 2 (Homo sapiens, UniProt O00180); experiment: TWIK-1 K+ currents, two-electrode voltage clamp in Xenopus oocytes injected with TWIK-1 cRNA; assay type: cell-based
T2 construct: expressed in transfected cells; host or cells: Xenopus laevis oocytes injected with cRNA transcribed from pEXO-TWIK-1
T2 sequence (O00180 1-336): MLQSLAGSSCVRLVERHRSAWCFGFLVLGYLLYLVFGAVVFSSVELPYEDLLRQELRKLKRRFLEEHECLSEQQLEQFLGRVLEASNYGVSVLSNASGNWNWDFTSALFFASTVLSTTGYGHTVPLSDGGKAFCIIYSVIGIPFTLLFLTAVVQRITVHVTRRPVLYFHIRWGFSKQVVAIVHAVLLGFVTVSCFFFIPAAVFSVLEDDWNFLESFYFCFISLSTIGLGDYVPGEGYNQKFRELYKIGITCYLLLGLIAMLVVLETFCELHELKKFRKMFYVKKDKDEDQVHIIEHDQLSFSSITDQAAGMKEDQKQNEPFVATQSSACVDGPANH
Protocol: For the functional study, the coding sequence of TWIK-1 was inserted between the noncoding sequences 5' and 3' of Xenopus globin in the vector pEXO (Lingueglia, E. et al., 1993, J. Biol. Chem., 269, 13736-13739). A complementary RNA (cRNA) was transcribed of this construction and injected in the oocytes of X laevis. In a 0.3ml perfusion chamber, a single oocyte was impaled on two standard glass microelectrodes (0.5 - 2.0 MW) charged with 3 M KCI and maintained under voltage-clamp with a Dagan TEV200 amplifier. The bath solution contained 98 mM KCl,1.8 raM CaCl2 […] and 5 mM HEPES at pH 7.4 with KOH. Stimulation of the preparation, data acquisition and analyses were carried out with the pClamp program (Axon Instruments) USA3.
Intracellular acidification of the oocytes was produced using two methods: • superfusion with a solution enriched in CO2 which produces acidification by a mechanism involving the bicarbonate transport system (Guillemare, E. et al., 1995, Mol. Pharmacol., 47, 588-594); • treatment with dinitrophenol (DNP), which is a metabolic inhibitor that decouples the H+ gradient in mitochondria and induces internal acidity (Pedersen, P. L. and Carafoli, E., 1997, Trends Biol. Sci., 12, 146-189).
Phosphorylation or dephosphorylation of specific amino acid residues is an important mechanism of regulation of the ionic channels (Levitan, I. B., 1994, Annul Rev. Physiol., 56, 193-212).

[3] = biological target: T2, human TWIK-1 K+ channel, SEQ ID NO: 2; experiment: TWIK-1 single channel activity, excised patch from Xenopus oocytes; assay type: cell-based; details: perfusion of the excised patch with 10 mM
Protocol: The pipettes were filled with a strong K+ solution (40 mM KCl, 100 mM of potassium methane sulfonate, 1.8 mM CaCl2, 2 m M MgCl2 and 5 mM HEPES adjusted to pH 7.4 with KOH). 100 µM of GdCl3 was added to the pipette solution to inhibit the action of the […]. The inside-out patches were perfused with a solution containing 140 mM KC1,10 mM CaCl2, 5 mM HEPES adjusted to pH 7.2 with KOH and 5 m M EGTA added daily. The single channel signals were filtered at 3.5 kHz and analyzed with the Biopatch program (Big-Logic, Grenoble, France).
With 3 mM of internal Mg^2+, the mean duration of opening at +80 mV is 1.9 ms and the unitary conductance is 19 +/- 1 pS (Figure 5c). At -80 mV, the channels are oscillating with a mean duration of opening of 0.3 ms, and a conductance value in creasing to 34 pS. […] In contrast to numerous channels which require the presence of ATP for their activity in the excised patch configuration, ATP is not required for the expression of TWIK-1.

[4] = biological target: human TASK1 K+ channel, SEQ ID NO: 4 (Homo sapiens, UniProt O14649); experiment: TASK1 currents elicited by voltage pulses to +50 mV, two-electrode voltage clamp in Xenopus oocytes; assay type: cell-based; details: for inhibition at 100 µM: read-out: TASK1 currents inhibited
Sequence of human TASK1 K+ channel, SEQ ID NO: 4 (O14649 whole entry, the tested form may be a part): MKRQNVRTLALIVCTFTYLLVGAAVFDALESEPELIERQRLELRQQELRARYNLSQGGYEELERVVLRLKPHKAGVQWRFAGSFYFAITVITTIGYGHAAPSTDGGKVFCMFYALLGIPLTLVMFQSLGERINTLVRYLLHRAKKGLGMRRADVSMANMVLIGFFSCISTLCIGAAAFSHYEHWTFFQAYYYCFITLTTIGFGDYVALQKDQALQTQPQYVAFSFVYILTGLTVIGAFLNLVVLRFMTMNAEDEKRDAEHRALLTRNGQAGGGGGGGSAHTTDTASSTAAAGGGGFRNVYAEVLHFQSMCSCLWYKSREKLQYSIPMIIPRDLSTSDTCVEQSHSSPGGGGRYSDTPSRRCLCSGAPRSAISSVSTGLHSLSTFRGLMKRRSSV
Protocol: For functional studies, TASK1 cRNAs were injected into Xenopus oocytes. This was accomplished by subcloning a 2480 bp SmaI/XhoI fragment from pBS-hT ASK containing 14 bp of 5' UTR, the coding sequence and the entire 3' UTR into the pEXO vector (Lingueglia et al., 1993) to give pEXO-TASK1. Capped-cRNAs were synthesised in vitro from the linearized plasmid by using the T7 RNA polymerase (Stratagene). Xenopus laevis were purchased from CRBM (Montpellier, France). Preparation and cRNA injection of oocytes has been described elsewhere (Guillemare et al., 1992). Oocytes were used for electrophysiological studies 2 to 4 days following injection (20 ng/oocyte). In a 0.3 ml perfusion chamber, a single oocyte was impaled with two standard microelectrodes (1-2.5 Mn resistance) filled with 3 M KCI and maintained under voltage clamp by using a Dagan TEV 200 amplifier, in standard ND96 solution (96 mM NaC1. 2 mM KCI, 1.8 mM CaCI2, 2 mM MgCl2, 5 mM HEPES, pH 7.4 with NaOH). In some experiments, NaCl was substituted with TMA Cl (Tetra Methyl Ammonium Chloride). Stimulation of the preparation, data acquisition, and analysis were performed using pClamp software (Axon instruments, USA). Drugs were applied externally by addition to the superfusate (flow rate: 3 ml/min) or intracellularly injected by using a pressure microinjector (Inject+Matic, Switzedand). All experiments were performed at room temperature (21-22 °C).
Figure 12A presents the I-V relationships of the current in K^+-rich solutions ranging from 2 mM to 98 mM. […] The theoretical I-V relationships in various [K^+]out calculated according to the Goldman-Hodgkin-Katz current equation are shown in Figure 12D. […] The effect of various pharmacological agents on currents elicited by voltage pulses to +50 mV has been studied in TASK1-expressing oocytes.

[5] = biological target: TWIK-1 (Tandem of P domains in a Weak Inward rectifying K+ channel) (human); experiment: cell-based or functional assay
[6] = read-out: inhibition of TWIK-1 currents
[7] = COS, read-out: inhibition of the TASK-2 current

Sequence of charybdotoxine (P13487 23-59 limits assumed): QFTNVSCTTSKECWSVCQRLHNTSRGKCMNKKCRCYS

Nc1ccncc1 [4-aminopyridine]
effect on TASK-2 currents ([1]; 100 µM): inactive
inhibition at 1000 µM ([2]; at 1 mM, read-out: inhibition of TWIK-1 currents): < 10%

Nc1ncnc2c1nc(Cl)n2[C@@H]1O[C@@H]2COP(=O)(O)O[C@H]2[C@H]1O [8-Cl-AMPc, 8-chloro cAMP]
sensitivity of TASK-2 currents ([1]; perfusion of 500 µM): insensitive
effect on the activity of TWIK-1 ([2]; 300 µM, activation of protein kinase A): does not affect

CNc1ccc2oc(C[C@H]3O[C@@]4(CC[C@H]3C)O[C@H]([C@H](C)C(=O)c3ccc[nH]3)[C@H](C)C[C@H]4C)nc2c1C(=O)O [A23187]
effect on the properties of the TWIK-1 channel [2]: without effect

Nc1ncnc2c1ncn2[C@@H]1O[C@H](COP(=O)(O)OP(=O)(O)OP(=O)(O)O)[C@@H](O)[C@H]1O [ATP]
effect on the activity of the TWIK-1 channel [3]: does not induce any effect

O=[N+]([O-])c1ccc(O)c([N+](=O)[O-])c1 [DNP, dinitrophenol]
inhibition at 1000 µM ([2]; DNP 1 mM, intracellular acidification, % of the control amplitude, read-out: reduction in the TWIK-1 currents): 80%

O=C(O)CN(CCOCCOCCN(CC(=O)O)CC(=O)O)CC(=O)O [EGTA]
sensitivity of TASK1 currents ([4]; injection of 100 mM, internal Ca2+ change): insensitive

CC(C)Cn1c(=O)n(C)c(=O)c2[nH]cnc21 [IBMX]
sensitivity of TASK-2 currents ([1]; IBMX 1 mM in a cocktail with forskolin 10 µM, increasing intracellular cAMP): insensitive
sensitivity of TASK1 currents ([4]; IBMX 1 mM perfused together with forskolin 10 µM, activation of adenyl cyclase): insensitive

CCCCCCCCCC(=O)O[C@@H]1[C@@H](C)[C@@]2(O)[C@@H](C=C(CO)C[C@@]3(O)C(=O)C(C)=C[C@@H]23)[C@@H]2C(C)(C)[C@]12OC(=O)CCCCCCCCC [PDA, 4α-phorbol-12, 13 didecanoate]
effect on TWIK-1 currents [2]: no effect

CC[N+](CC)(CC)CC [TEA, tetraethylammonium]
effect on TASK-2 currents ([1]; 1 mM): inactive
inhibition at 20000 µM [2, 6]: 30%

CCCCc1oc2ccccc2c1C(=O)c1cc(I)c(OCCN(CC)CC)c(I)c1 [amiodarone]
inhibition at 100 µM [2, 6]: < 10%

CCCCC/C=C\C/C=C\C/C=C\C/C=C\CCCC(=O)O [arachidonic acid]
sensitivity of TASK-2 ([1]; 10 µM): not sensitive

CCCCN1CCCCC1C(=O)Nc1c(C)cccc1C (stereo not shown) [bupivacaïne]
inhibition at 1000 µM ([1]; COS, 1 mM, n = 4, read-out: inhibition of the TASK-2 current): 80.9%

CCCCCCC[N+](CC)(CC)CCCCc1ccc(Cl)cc1 [clofilium]
inhibition at 30 µM [2]: < 10%

CC1(C)Oc2ccc(C#N)cc2C(N2CCCC2=O)C1O (stereo not shown) [cromakaline]
sensitivity of the TWIK-1 channel to K+ channel opener ([2]; 140 µM): not sensitive

COc1ccc(Cl)cc1C(=O)NCCc1ccc(S(=O)(=O)NC(=O)NC2CCCCC2)cc1 [glibenclamide]
inhibition at 30 µM [2]: < 10%

O=P(O)(O)O[C@@H]1[C@H](O)[C@H](O)[C@@H](OP(=O)(O)O)[C@H](OP(=O)(O)O)[C@H]1O [inositol triphosphate]
sensitivity of TASK1 currents ([4]; injection of 1 mM, internal Ca2+ change): insensitive

CCN(CC)CC(=O)Nc1c(C)cccc1C [lidocaine]
inhibition at 1000 µM [1, 7]: 60.4 ± 1.5%

CC(N/C(=N\C#N)Nc1ccncc1)C(C)(C)C (stereo not shown) [pinacidil]
sensitivity of the TWIK-1 channel to K+ channel opener ([2]; 100 µM): not sensitive

CCN(CC)CCCC(C)Nc1c2ccc(Cl)cc2nc2ccc(OC)cc12 (stereo not shown) [quinacrine]
inhibition at 100 µM [4]: < 20%

C=C[C@H]1C[N@@]2CC[C@H]1C[C@@H]2[C@@H](O)c1ccnc2ccc(OC)cc12 [quinidine]
inhibition at 100 µM [4]: < 20%

C=C[C@H]1C[N@@]2CC[C@H]1C[C@H]2[C@H](O)c1ccnc2ccc(OC)cc12 [quinine]
IC50 [1]: 22.4 ± 1.8 µM
inhibition at 100 µM [1, 7]: 65 ± 3.8%
inhibition at 100 µM [4]: < 20%

C1CCC2(C1)C1CN(CC3CC3)CC2CN(CC2CC2)C1 [tedisamil]
inhibition at 100 µM ([2]; at 100 µM, read-out: inhibition of TWIK-1 currents): 30%

apamin (from UniProt P01500 28-45) (peptide)
inhibition of TWIK-1 K+ currents (two-electrode voltage clamp, Xenopus oocytes) [5]: < 10%

charybdotoxine (from UniProt P13487 23-59) (peptide)
inhibition of TWIK-1 K+ currents (two-electrode voltage clamp, Xenopus oocytes) [5]: < 10%

dedrotoxine (peptide)
inhibition of TWIK-1 K+ currents (two-electrode voltage clamp, Xenopus oocytes) [5]: < 10%
